The results in this text go back to patent US5968952A, “Farnesyl transferase inhibiting 2-quinolone derivatives” (Janssen Pharmaceutica, N.V., priority 1995, dated 1999).

The target of test [1] is T1, Human farnesyl protein transferase (Homo sapiens, UniProt P49354+P49356).
T1 construct: were used as a source of human enzyme; endogenous in cells; host or cells: Kirsten virus transformed human osteosarcoma (KHOS) cells (ATCC), grown as monolayers or as solid tumors in nude mice; ammonium sulfate fraction and Q Sepharose pool
Briefly: In Vitro Assay for Inhibition of Farnesyl Protein Transferase ([3H] Scintillation Proximity Assay). The conditions noted are these: Table 7; human enzyme from KHOS cells; biotinylated lamin B peptide substrate; 60 min, 37° C.; read-out: IC50 (concentration of test compound producing 50% inhibition of enzyme activity). It is filed as biochemical. On the procedure: In Vitro Assay for Inhibition of Farnesyl Protein Transferase Human farnesyl protein transferase was prepared essentially as described ([…] al., Methods: A Companion to Methods in Enzymology vol 1, 241-245, 1990). Kirsten virus transformed human osteosarcoma (KHOS) cells (American Type Culture Collection, Rockvill, Md., USA) grown as solid tumors in nude mice or grown as monolayer cell cultures were used as a source of human enzyme. Briefly, cells or tumors were homogenized in buffer containing 50 mM Tris, 1 mM EDTA, 1 mM EGTA and 0.2 mM phenylmethylsulfonylfluoride (pH 7.5). The homogenates were centrifuged 28,000× g for 60 min and the supernatants collected. A 30-50% ammonium sulfate […] prepared, and the resulting precipitate was resuspended in a small (10 to 20 ml) volume of dialysis buffer containing 20 mM Tris, 1 mM dithiothreitol and 20 μM ZnCl2. The ammonium sulfate fraction was dialyzed overnight against two changes of the same buffer. The dialyzed material was applied to a 10×1 cm Q Fast Flow Sepharose (Pharmacia LKB Biotechnology Inc., Piscataway, N.J., USA) which had been preequilibrated with 100 ml of dialysis buffer supplemented with 0.05M NaCl. The column was washed with an additional 50 ml of dialysis buffer plus 0.05M NaCl followed by a gradient from 0.05M to 0.25M NaCl prepared in dialysis buffer. The enzyme activity was eluted with a linear gradient of 0.25 to 1.0M NaCl prepared in the dialysis buffer. Fractions containing 4 to 5 ml volumes of column eluate were collected and analyzed for farnesyl protein transferase activity. Fractions with enzyme activity were pooled and supplemented with 100 μM ZnCl2. Enzyme samples were stored frozen at -70° C. The activity of farnesyl protein transferase was measured using the Farnesyl Transferase [^3 H] Scintillation Proximity Assay (Amersham International plc., England) under the conditions specified by the manufacturer. […] The reaction mixture was warmed to 37° C. The enzyme reaction was started by adding 20 μl of diluted human farnesyl protein transferase. […] Reactions were terminated by the addition of STOP/scintillation proximity bead reagent (Amersham). The reaction product [^3 H]-farnesyl-(Cys)-biotin lamin B peptide was captured on the streptavidin linked scintillation proximity bead. The amount of [^3 H]-farnesyl-(Cys)-biotin lamin B peptide synthesized in the presence or absence of test compounds was quantified as cpm by counting on a Wallac Model 1480 Microbeta Liquid Scintillation Counter. The cpm of product was considered to be farnesyl protein transferase activity. The protein farnesyl transferase activity observed in the presence of test compound was normalized to farnesyl transferase activity in the presence of 10% DMSO and expressed as per cent inhibition. […] W. Johnson Pharmaceutical Research Institue (Spring House, Pa., USA) on a VAX computer.
A general note: Scintillation proximity formats need no separation of bound from free tracer.

For test [2], the system named is NIH 3T3 cells transformed by the T24 activated human H-ras gene. Briefly: Ras-Transformed Cell Phenotype Reversion Assay. The format is cell-based, mouse. The conditions noted are these: NIH3T3; Table 8; T24 H-ras transformed NIH 3T3 cells; 72 hours; cell counts. The text has this: "Ras-Transformed Cell Phenotype Reversion Assay" Insertion of activated oncogenes such as the mutant ras gene into mouse NIH 3T3 cells converts the cells to a transformed phenotype. The cells become tumorigenic, display anchorage independent growth in semi-solid medium and lose contact inhibition. Loss of contact inhibition produces cell cultures which no longer form uniform monolayers. Rather, the cells pile up into multicellular nodules and grow to very high saturation densities in plastic tissue culture dishes. Agents such as protein farnesyl transferase inhibitors which revert the ras transformed phenotype restore the uniform monolayer growth pattern to cells in culture. This reversion is easily monitored by counting the number of cells in tissue culture plates. Transformed cells will achieve higher cell numbers than cells which have reverted to an untransformed phenotype. Compounds which revert the transformed phenotype should produce antitumor effects in tumors bearing ras gene mutations. Method Compounds are screened in tissue culture in NIH 3T3 cells transformed by the T24 activated human H-ras gene. Cells are seeded at an initial density of 200,000 cells per well (9.6 cm^2 surface area) in six-well cluster tissue culture plates. Test compounds are immediately added to 3.0 ml cell growth mediuim in a 3.0 μl volume of DMSO, with a final concentration of DMSO in the cell growth medium of 0.1%. […] Then the cells are detached in 1.0 ml trypsin-EDTA cell dissociation medium and counted on a Coulter particle counter. Measurements Cell numbers expressed as cells per well are measured using a Coulter Particle Counter. All cell counts were corrected for the initial cell input density by subtracting 200,000. Control cell counts=[cell counts from cells incubated with DMSO vehicle--200,000] Test compound cell counts=[cell counts from cells incubated with test compound--200,000]. [formula]

Structures are written as SMILES.

In the case of `COC(=O)C(CC(C)C)NC(=O)Cn1c(=O)cc(-c2ccccc2)c2cc(C(c3ccc(Cl)cc3)n3ccnc3)ccc21` (racemic) [Compound 39], the IC50 in test [1] came out at 0.047 µM.

Take `O=c1cc(-c2ccccc2)c2cc(C(c3ccc(Cl)c(Cl)c3)n3ccnc3)ccc2[nH]1` (stereo not drawn) [Compound 34]: the IC50 in test [1] came to 0.6 µM.

Take `COc1ccc(C(c2ccc3[nH]c(=O)cc(-c4ccccc4)c3c2)n2ccnc2)cc1` (stereo not drawn) [Compound 33]: the IC50 in test [1] came out at 0.85 µM.

In the case of `O=c1cc(-c2ccccc2)c2cc(C(c3cccc(Cl)c3)n3ccnc3)ccc2[nH]1` (stereo not drawn) [Compound 3], in test [1], the IC50 is 1.4 µM.

As for `O=c1cc(-c2ccccc2Cl)c2cc(C(c3ccc(Cl)cc3)n3ccnc3)ccc2[nH]1` (stereo not drawn) [Compound 12], the IC50 in test [1] is 3.2 µM.

With `CC(c1ccc(Cl)cc1)(c1ccc2[nH]c(=O)cc(-c3ccccc3)c2c1)n1ccnc1` (stereo not drawn) [Compound 58], in test [1], the IC50 amounted to 0.27 µM.

Regarding `O=c1cc(-c2ccccc2)c2cc(C(c3ccccc3)n3ccnc3)ccc2[nH]1` (racemic) [Compound 1, (±)-6-[(1H-imidazol-1-yl)phenylmethyl]-4-phenyl-2(1H)-quinolinone], the IC50 in test [1] came out at 0.93 µM.

In the case of `Cc1cncn1C(c1ccc(Cl)cc1)c1ccc2[nH]c(=O)cc(-c3ccccc3)c2c1` (stereo not drawn) [Compound 49], the IC50 in test [1] came to 0.3 µM.

For `COc1cccc(-c2cc(=O)[nH]c3ccc(C(c4ccc(Cl)cc4)n4ccnc4)cc23)c1` (stereo not drawn) [Compound 24], the IC50 in test [1] is 0.032 µM.

Turning to `O=c1cc(-c2cc(Cl)cc(Cl)c2)c2cc(C(c3ccc(Cl)cc3)n3ccnc3)ccc2[nH]1` (stereo not drawn) [Compound 37], the IC50 in test [1] came to 0.096 µM.

On to `Cn1c(=O)cc(-c2ccccc2)c2cc(C(c3ccc(Cl)cc3)n3ccnc3)ccc21` (racemic) [Compound 8, (±)-6-[(4-chlorophenyl)-1H-imidazol-1-yl-methyl]-1-methyl-4-phenyl-2(1H)-quinolinone], for which the IC50 in test [1] was determined as 0.07 µM.

For the molecule `O=c1cc(-c2ccc(Cl)cc2)c2cc(C(c3ccc(Cl)cc3)n3ccnc3)ccc2[nH]1` (stereo not drawn) [Compound 11], the IC50 in test [1] amounted to 0.32 µM.

Consider `O=C1CC(c2ccccc2)c2cc(C(c3ccc(Cl)cc3)n3ccnc3)ccc2N1` (racemic) [Compound 57, (±)-6-[(4-chlorophenyl)-1H-imidazol-1-ylmethyl]-3,4-dihydro-4-phenyl-2(1H)-quinolinone], for which the IC50 in test [1] came to 1.2 µM.

Consider `CCOC(=O)Cn1c(=O)cc(-c2ccccc2)c2cc(C(c3ccc(Cl)cc3)n3ccnc3)ccc21` (stereo not drawn) [Compound 17], for which, in test [1], the IC50 was 0.23 µM.

On to `Cc1cc(C(c2ccc(Cl)cc2)n2ccnc2)cc2c(-c3cccc(Cl)c3)cc(=O)n(C)c12` (stereo not drawn) [Compound 89], for which the IC50 in test [2] is 0.445 µM.

Turning to `CN(C)CCn1c(=O)cc(-c2cccc(Cl)c2)c2cc(C(c3ccc(Cl)cc3)n3ccnc3)ccc21` (stereo not drawn) [Compound 80], the IC50 in test [2] worked out at 0.169 µM.

For `O=c1cc(-c2ccccc2)c2cc(C(c3ccc(Cl)cc3)n3ccnc3)ccc2[nH]1` (stereo not drawn) [Compound 2], the IC50 in test [1] came to 0.18 µM.

Turning to `O=c1cc(-c2cccc(F)c2)c2cc(C(c3ccc(Cl)cc3)n3ccnc3)ccc2[nH]1` (stereo not drawn) [Compound 21], the IC50 in test [1] came to 0.15 µM.

In the case of `O=c1cc(-c2ccccc2)c2cc(C(c3ccc(Cl)cc3)n3cnc(-c4ccccc4)c3)ccc2[nH]1` (stereo not drawn) [Compound 47], in test [1], the IC50 was 0.105 µM.

As for `O=c1cc(-c2ccccc2)c2cc(C(c3ccc(Cl)cc3)n3ccnc3)ccc2n1Cc1ccccc1` (stereo not drawn) [Compound 10], in test [1], the IC50 amounted to 0.22 µM.

Regarding `O=c1cc(-c2cccc(Br)c2)c2cc(C(c3ccc(Cl)cc3)n3ccnc3)ccc2[nH]1` (stereo not drawn) [Compound 30], the IC50 in test [1] worked out at 0.021 µM.

`Cc1ccccc1-c1cc(=O)[nH]c2ccc(C(c3ccc(Cl)cc3)n3ccnc3)cc12` (stereo not drawn) [Compound 28]: the IC50 in test [1] was found to be 2.2 µM.

In the case of `Oc1cc(-c2ccccc2)c2cc(C(c3ccc(Cl)cc3)n3ccnc3)ccc2n1` (single isomer, unassigned; (-)) [Compound 7, (-)-(B)-6-[(4-chlorophenyl)-1H-imidazol-1-ylmethyl]-4-phenyl-2(1H)-quinolinone], in test [1], the IC50 was found to be 0.11 µM.

As to `CCCn1c(=O)cc(-c2ccccc2)c2cc(C(c3ccc(Cl)cc3)n3ccnc3)ccc21` (stereo not drawn) [Compound 14], the IC50 in test [1] was 0.7 µM.

For `Cn1c(=O)cc(-c2ccccc2)c2cc(C(CO)(c3ccc(Cl)cc3)n3ccnc3)ccc21` (racemic) [Compound 59, (±)-6-[1-(4-chlorophenyl)-2-hydroxy-1-(1H-imidazol-1-yl)ethyl]-1-methyl-4-phenyl-2(1H)-quinolinone monohydrate], the IC50 in test [1] is 0.013 µM.

As to `COc1ccc(CCn2c(=O)cc(-c3ccccc3)c3cc(C(c4ccc(Cl)cc4)n4ccnc4)ccc32)cc1` (stereo not drawn) [Compound 29], the IC50 in test [1] amounted to 2.4 µM.

In the case of `Cc1cccc(-c2cc(=O)[nH]c3ccc(C(c4ccc(Cl)cc4)n4ccnc4)cc23)c1` (stereo not drawn) [Compound 18], the IC50 in test [1] was 0.04 µM.

Consider `O=c1cc(-c2ccccc2)c2cc(C(c3ccc(F)cc3)n3ccnc3)ccc2[nH]1` (stereo not drawn) [Compound 4], for which the IC50 in test [1] was 0.315 µM.

`O=c1cc(-c2ccccc2)c2cc(C(c3ccccc3Cl)n3ccnc3)ccc2[nH]1` (stereo not drawn) [Compound 32]: the IC50 in test [1] amounted to 0.53 µM.

With `Cn1c(=O)cc(-c2cccc(Cl)c2)c2cc(C(C)(c3ccc(Cl)cc3)n3ccnc3)ccc21` (racemic) [Compound 62, (±)-4-(3-chlorophenyl)-6-[1-(4-chlorophenyl)-1-(1H-imidazol-1-yl)ethyl]-1-methyl-2(1H)-quinolinone], the IC50 in test [1] amounted to 0.022 µM.

Take `CCCC(c1ccc(Cl)cc1)(c1ccc2c(c1)c(-c1cccc(Cl)c1)cc(=O)n2C)n1ccnc1` (stereo not drawn) [Compound 65]: in test [1], the IC50 was 0.051 µM.

Take `Cc1ccc(-c2cc(=O)[nH]c3ccc(C(c4ccc(Cl)cc4)n4ccnc4)cc23)cc1` (stereo not drawn) [Compound 27]: the IC50 in test [1] turned out to be 0.193 µM.

Regarding `Cn1c(=O)cc(-c2cccc(Cl)c2)c2cc(C(c3ccc(Cl)cc3)n3ccnc3)ccc21` (stereo not drawn) [Compound 15, 4-(3-chlorophenyl)-6-[(4-chlorophenyl)-1H-imidazol-1-ylmethyl]-1-methyl-2(1H)-quinolinone], the IC50 in test [1] was 0.016 µM.

Consider `O=c1cc(-c2ccccc2)c2cc(C(c3ccc(Cl)cc3Cl)n3ccnc3)ccc2[nH]1` (stereo not drawn) [Compound 31], for which the IC50 in test [1] came to 0.48 µM.

For `O=c1cc(-c2cccc(Cl)c2)c2cc(C(c3ccc(Cl)cc3)n3ccnc3)ccc2[nH]1` (stereo not drawn) [Compound 13, 4-(3-chlorophenyl)-6-[(4-chlorophenyl)-1H-imidazol-1-ylmethyl]-2(1H)-quinolinone], in test [1], the IC50 turned out to be 0.034 µM.

As to `O=c1cc(-c2ccc(Cl)c(Cl)c2)c2cc(C(c3ccc(Cl)cc3)n3ccnc3)ccc2[nH]1` (stereo not drawn) [Compound 26], the IC50 in test [1] came to 0.227 µM.

With `O=c1cc(-c2cccc(C(F)(F)F)c2)c2cc(C(c3ccc(Cl)cc3)n3ccnc3)ccc2[nH]1` (stereo not drawn) [Compound 20], the IC50 in test [1] was found to be 0.24 µM.

Take `Cc1ccc(C(c2ccc3[nH]c(=O)cc(-c4ccccc4)c3c2)n2ccnc2)cc1` (stereo not drawn) [Compound 25]: the IC50 in test [1] amounted to 0.262 µM.

Turning to `Cc1cncn1C(c1ccc(Cl)cc1)c1ccc2[nH]c(=O)cc(-c3cccc(Cl)c3)c2c1` (stereo not drawn) [Compound 53], the IC50 in test [1] is 0.032 µM.
